Laboratory results from US20180000085A1, “USE OF PICOLINAMIDE COMPOUNDS WITH FUNGICIDAL ACTIVITY” (DOW AGROSCIENCES LLC, priority 2014, published 2018).

What was measured:
[1] = tested on: Puccinia triticina; assay: Wheat brown rust (PUCCRT) disease control on wheat seedlings; assay type: in vivo; conditions: wheat brown rust; for HV activity at 100 ppm PUCCRT 1DP (disease control rating) / HV activity at 100 ppm PUCCRT 3DC (disease control rating): HV application; for HV activity at 100 ppm PUCCRT 1DP (disease control rating) / LV activity at 125.1 g/H PUCCRT 1DP (disease control rating): 1 Day Protectant; for HV activity at 100 ppm PUCCRT 3DC (disease control rating) / LV activity at 125.1 g/H PUCCRT 3DC (disease control rating): 3 Day Curative; for LV activity at 125.1 g/H PUCCRT 1DP (disease control rating) / LV activity at 125.1 g/H PUCCRT 3DC (disease control rating): low volume application
[2] = tested on: Zymoseptoria tritici; assay: Leaf blotch of wheat (SEPTTR) disease control on wheat seedlings; assay type: in vivo; set-up: key to SEPTTR 1DP, HV activity at 100 ppm (% control rating) / SEPTTR 3DC, HV activity at 100 ppm (% control rating) / SEPTTR disease control, 1DP / SEPTTR disease control, 3DC / SEPTTR 1DP disease control rating, HV activity / SEPTTR 3DC disease control rating, HV activity / SEPTTR 3DC, LV activity at 125.1 g/H (% Control rating) / SEPTTR 1DP, LV activity at 125.1 g/H (% Control rating) / SEPTTR 1DP disease control rating, LV activity at 125.1 g/H / SEPTTR 3DC disease control rating, LV activity at 125.1 g/H / SEPTTR 3DC disease control rating, HV activity at 100 ppm / SEPTTR 1DP disease control rating, HV activity at 100 ppm / HV activity at 100 ppm SEPTTR 3DC (disease control rating) / HV activity at 100 ppm SEPTTR 1DP (disease control rating) / LV activity at 125.1 g/H SEPTTR 1DP (disease control rating) / LV activity at 125.1 g/H SEPTTR 3DC (disease control rating): A: > 80; B: ≤ 80; C: Not Tested; D: No Activity Observed in the Reported Assay; conditions: wheat leaf blotch; for HV activity at 100 ppm SEPTTR 1DP (disease control rating) / HV activity at 100 ppm SEPTTR 3DC (disease control rating): HV application; for HV activity at 100 ppm SEPTTR 1DP (disease control rating) / LV activity at 125.1 g/H SEPTTR 1DP (disease control rating): 1 Day Protectant; for HV activity at 100 ppm SEPTTR 3DC (disease control rating) / LV activity at 125.1 g/H SEPTTR 3DC (disease control rating): 3 Day Curative; for LV activity at 125.1 g/H SEPTTR 1DP (disease control rating) / LV activity at 125.1 g/H SEPTTR 3DC (disease control rating): low volume application

SMILES | HV activity at 100 ppm PUCCRT 1DP (disease control rating) [1] | HV activity at 100 ppm PUCCRT 3DC (disease control rating) [1] | HV activity at 100 ppm SEPTTR 1DP (disease control rating) [2] | HV activity at 100 ppm SEPTTR 3DC (disease control rating) [2] | LV activity at 125.1 g/H PUCCRT 1DP (disease control rating) [1] | LV activity at 125.1 g/H PUCCRT 3DC (disease control rating) [1] | LV activity at 125.1 g/H SEPTTR 1DP (disease control rating) [2] | LV activity at 125.1 g/H SEPTTR 3DC (disease control rating) [2]
COc1ccnc(C(=O)N[C@@H](C)C(=O)O[C@@H](C)[C@@H](CC(C)C)Oc2ccc(Cl)cc2)c1O [Cmpd 1047] | A (> 80) | A (> 80) | B (≤ 80) | A (> 80) | – | – | – | –
COc1ccnc(C(=O)N[C@@H](C)C(=O)O[C@@H](C)[C@@H](CC(C)C)Oc2cccc(F)c2)c1O [Cmpd 1048] | A (> 80) | A (> 80) | B (≤ 80) | A (> 80) | – | – | – | –
COc1ccnc(C(=O)N[C@@H](C)C(=O)O[C@@H](C)[C@@H](CC(C)C)Oc2cc(F)ccc2F)c1O [Cmpd 1049] | A (> 80) | A (> 80) | A (> 80) | B (≤ 80) | – | – | – | –
COc1ccnc(C(=O)N[C@@H](C)C(=O)O[C@@H](C)[C@@H](CC(C)C)Oc2cccc(Cl)c2)c1O [Cmpd 1050] | A (> 80) | A (> 80) | A (> 80) | A (> 80) | – | – | – | –
COc1ccnc(C(=O)N[C@@H](C)C(=O)O[C@@H](C)[C@@H](CC(C)C)Oc2ccc(C)cc2Cl)c1O [Cmpd 1051] | A (> 80) | B (≤ 80) | B (≤ 80) | D | – | – | – | –
COc1cc(O[C@H](CC(C)C)[C@H](C)OC(=O)[C@H](C)NC(=O)c2nccc(OC)c2O)ccc1Cl [Cmpd 1052] | A (> 80) | A (> 80) | A (> 80) | A (> 80) | – | – | – | –
COc1ccnc(C(=O)N[C@@H](C)C(=O)O[C@@H](C)[C@H](Oc2cccc(Cl)c2)C2CC2)c1OC(C)=O [Cmpd 1053] | – | – | – | – | A (> 80) | A (> 80) | B (≤ 80) | A (> 80)
CCC[C@@H](Oc1ccc(Cl)c(OC)c1)[C@H](C)OC(=O)[C@H](C)NC(=O)c1nccc(OC)c1OC(C)=O [Cmpd 1054] | – | – | – | – | A (> 80) | A (> 80) | B (≤ 80) | B (≤ 80)
COc1ccnc(C(=O)N[C@@H](C)C(=O)O[C@@H](C)[C@H](Oc2cccc(Cl)c2)C(C)(C)C)c1OC(C)=O [Cmpd 1055] | – | – | – | – | A (> 80) | A (> 80) | B (≤ 80) | A (> 80)
CCC[C@@H](Oc1cccc(Cl)c1)[C@H](C)OC(=O)[C@H](C)NC(=O)c1nccc(OC)c1OC(C)=O [Cmpd 1056] | – | – | – | – | A (> 80) | A (> 80) | A (> 80) | A (> 80)
CCC[C@@H](OCC1CC1)[C@H](C)OC(=O)[C@H](C)NC(=O)c1nccc(OC)c1OC(C)=O [Cmpd 1057] | – | – | – | – | B (≤ 80) | A (> 80) | B (≤ 80) | B (≤ 80)
COc1ccnc(C(=O)N[C@@H](C)C(=O)O[C@@H](C)[C@H](Oc2ccc(C)cc2)C2CC2)c1OC(C)=O [Cmpd 1058] | – | – | – | – | A (> 80) | A (> 80) | B (≤ 80) | B (≤ 80)
COc1ccnc(C(=O)N[C@@H](C)C(=O)O[C@@H](C)[C@H](Oc2ccc(C)cc2)C(C)(C)C)c1OC(C)=O [Cmpd 1059] | – | – | – | – | A (> 80) | A (> 80) | B (≤ 80) | B (≤ 80)
CCC[C@@H](Oc1ccc(C)cc1)[C@H](C)OC(=O)[C@H](C)NC(=O)c1nccc(OC)c1OC(C)=O [Cmpd 1060] | – | – | – | – | A (> 80) | A (> 80) | B (≤ 80) | B (≤ 80)
COc1cccc(O[C@H](C2CC2)[C@H](C)OC(=O)[C@H](C)NC(=O)c2nccc(OC)c2OC(C)=O)c1 [Cmpd 1061] | – | – | – | – | B (≤ 80) | A (> 80) | D | B (≤ 80)
COc1cccc(O[C@@H]([C@H](C)OC(=O)[C@H](C)NC(=O)c2nccc(OC)c2OC(C)=O)C(C)(C)C)c1 [Cmpd 1062] | – | – | – | – | A (> 80) | A (> 80) | B (≤ 80) | B (≤ 80)
CCC[C@@H](Oc1cccc(OC)c1)[C@H](C)OC(=O)[C@H](C)NC(=O)c1nccc(OC)c1OC(C)=O [Cmpd 1063] | – | – | – | – | A (> 80) | A (> 80) | B (≤ 80) | A (> 80)
COc1ccnc(C(=O)N[C@@H](C)C(=O)O[C@@H](C)[C@H](Oc2ccccc2)C2CC2)c1OC(C)=O [Cmpd 1064] | – | – | – | – | A (> 80) | A (> 80) | B (≤ 80) | A (> 80)
COc1ccnc(C(=O)N[C@@H](C)C(=O)O[C@@H](C)[C@H](Oc2ccccc2)C(C)(C)C)c1OC(C)=O [Cmpd 1065] | – | – | – | – | A (> 80) | A (> 80) | B (≤ 80) | A (> 80)
COc1ccnc(C(=O)N[C@@H](C)C(=O)O[C@@H](C)[C@H](OCC2CC2)C2CC2)c1OC(C)=O [Cmpd 1066] | – | – | – | – | B (≤ 80) | A (> 80) | B (≤ 80) | B (≤ 80)
COc1ccnc(C(=O)N[C@@H](C)C(=O)O[C@@H](C)[C@H](Oc2ccc(C)cc2Cl)C(C)(C)C)c1OC(C)=O [Cmpd 1067] | – | – | – | – | A (> 80) | B (≤ 80) | D | B (≤ 80)
CCC[C@@H](Oc1ccc(C)cc1Cl)[C@H](C)OC(=O)[C@H](C)NC(=O)c1nccc(OC)c1OC(C)=O [Cmpd 1068] | – | – | – | – | A (> 80) | B (≤ 80) | B (≤ 80) | B (≤ 80)
COc1cc(O[C@H](C2CC2)[C@H](C)OC(=O)[C@H](C)NC(=O)c2nccc(OC)c2OC(C)=O)ccc1Cl [Cmpd 1069] | – | – | – | – | A (> 80) | A (> 80) | B (≤ 80) | B (≤ 80)
COc1cc(O[C@@H]([C@H](C)OC(=O)[C@H](C)NC(=O)c2nccc(OC)c2OC(C)=O)C(C)(C)C)ccc1Cl [Cmpd 1070] | – | – | – | – | A (> 80) | A (> 80) | B (≤ 80) | D
